In PubChem BioAssay AID2060622 (Molecular Pharmacology Branch, DTP, NCI, 2025):

Test system: 242566-281-R-J2-PDC complex spheroid viability
Experiment: Anticancer human tumor 242566-281-R-J2-PDC patient-derived pancreatic carcinoma cell line growth inhibition [CLK]
Conditions: for IC50: curve of first compound; for viability, T/C: stronger effect = lower value
Summary of the method: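 Multi-cell-type spheroids combined patient-derived tumor cells with HUVEC endothelial cells and human mesenchymal stem cells. Paired agents were dosed in half-log steps down from about clinical Cmax, or from 10 microM where Cmax was unknown.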

[1] = second compound 0.0316 µM, first compound 0.0316 µM
[2] = second compound 0.0316 µM, first compound 0.1 µM
[3] = second compound 0.0316 µM, first compound 0.316 µM
[4] = second compound 0.0316 µM, first compound 1 µM
[5] = second compound 0.0316 µM, first compound 3.16 µM
[6] = second compound 0.0316 µM, first compound 10 µM
[7] = second compound 0.1 µM, first compound 0.0316 µM
[8] = second compound 0.1 µM, first compound 0.1 µM
[9] = second compound 0.1 µM, first compound 0.316 µM
[10] = second compound 0.1 µM, first compound 1 µM
[11] = second compound 0.1 µM, first compound 3.16 µM
[12] = second compound 0.1 µM, first compound 10 µM
[13] = second compound 0.316 µM, first compound 0.0316 µM
[14] = second compound 0.316 µM, first compound 0.1 µM
[15] = second compound 0.316 µM, first compound 0.316 µM
[16] = second compound 0.316 µM, first compound 1 µM
[17] = second compound 0.316 µM, first compound 3.16 µM
[18] = second compound 0.316 µM, first compound 10 µM
[19] = second compound 1 µM, first compound 0.0316 µM
[20] = second compound 1 µM, first compound 0.1 µM
[21] = second compound 1 µM, first compound 0.316 µM
[22] = second compound 1 µM, first compound 1 µM
[23] = second compound 1 µM, first compound 3.16 µM
[24] = second compound 1 µM, first compound 10 µM
[25] = second compound 3.16 µM, first compound 0.0316 µM
[26] = second compound 3.16 µM, first compound 0.1 µM
[27] = second compound 3.16 µM, first compound 0.316 µM
[28] = second compound 3.16 µM, first compound 1 µM
[29] = second compound 3.16 µM, first compound 3.16 µM
[30] = second compound 3.16 µM, first compound 10 µM
[31] = second compound 10 µM, first compound 0.0316 µM
[32] = second compound 10 µM, first compound 0.1 µM
[33] = second compound 10 µM, first compound 0.316 µM
[34] = second compound 10 µM, first compound 1 µM
[35] = second compound 10 µM, first compound 3.16 µM
[36] = second compound 10 µM, first compound 10 µM
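Further: spheroids exposed to compounds for 7 days before readout.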
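Wherever viability, T/C is given: 100% = DMSO vehicle control wells.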

With CC(C)CC(NC(=O)C(Cc1ccccc1)NC(=O)c1cnccn1)B(O)O (stereo unspecified) + CN1CCN(c2cc(C(=O)Nc3cc4cc(-c5cnn(C)c5)ccc4cn3)ccn2)CC1 the IC50 (second compound 0.0316 µM) was 2.08 nM, the IC50 (second compound 0.1 µM) was 1.98 nM and the IC50 (second compound 0.316 µM) was < 0.949 nM. For the same compound, the IC50 (second compound 1 µM) was < 0.949 nM, the IC50 (second compound 3.16 µM) was < 0.949 nM and the IC50 (second compound 10 µM) was < 0.949 nM. It also gave a viability, T/C (second compound 0.0316 µM, first compound 0.000949 µM) of 103%, a viability, T/C (second compound 0.0316 µM, first compound 0.003 µM) of 25.5% and a viability, T/C (second compound 0.0316 µM, first compound 0.00949 µM) of 1.28%. It also gave a viability, T/C (second compound 0.0316 µM, first compound 0.03 µM) of 0.43%, a viability, T/C (second compound 0.0316 µM, first compound 0.0949 µM) of 0.27% and a viability, T/C (second compound 0.0316 µM, first compound 0.3 µM) of 0.23%. For the same compound, the viability, T/C (second compound 0.1 µM, first compound 0.000949 µM) was 98.8%, the viability, T/C (second compound 0.1 µM, first compound 0.003 µM) was 22.7% and the viability, T/C (second compound 0.1 µM, first compound 0.00949 µM) was 0.52%. For the same compound, the viability, T/C (second compound 0.1 µM, first compound 0.03 µM) was 0.43%, the viability, T/C (second compound 0.1 µM, first compound 0.0949 µM) was 0.39% and the viability, T/C (second compound 0.1 µM, first compound 0.3 µM) was 0.27%. The viability, T/C (second compound 0.316 µM, first compound 0.000949 µM) was 26.7%, the viability, T/C (second compound 0.316 µM, first compound 0.003 µM) was 2.24% and the viability, T/C (second compound 0.316 µM, first compound 0.00949 µM) was 0.29%. The viability, T/C (second compound 0.316 µM, first compound 0.03 µM) was 0.28%, the viability, T/C (second compound 0.316 µM, first compound 0.0949 µM) was 0.29% and the viability, T/C (second compound 0.316 µM, first compound 0.3 µM) was 0.51%. For the same compound, the viability, T/C (second compound 1 µM, first compound 0.000949 µM) was 5.2%, the viability, T/C (second compound 1 µM, first compound 0.003 µM) was 1.12% and the viability, T/C (second compound 1 µM, first compound 0.00949 µM) was 0.43%. The viability, T/C (second compound 1 µM, first compound 0.03 µM) was 0.31%, the viability, T/C (second compound 1 µM, first compound 0.0949 µM) was 0.26% and the viability, T/C (second compound 1 µM, first compound 0.3 µM) was 0.4%. It also gave a viability, T/C (second compound 3.16 µM, first compound 0.000949 µM) of 7.89%, a viability, T/C (second compound 3.16 µM, first compound 0.003 µM) of 1.95% and a viability, T/C (second compound 3.16 µM, first compound 0.00949 µM) of 0.39%. It also gave a viability, T/C (second compound 3.16 µM, first compound 0.03 µM) of 0.2%, a viability, T/C (second compound 3.16 µM, first compound 0.0949 µM) of 0.38% and a viability, T/C (second compound 3.16 µM, first compound 0.3 µM) of 0.8%. For the same compound, the viability, T/C (second compound 10 µM, first compound 0.000949 µM) was 1.93%, the viability, T/C (second compound 10 µM, first compound 0.003 µM) was 1.11% and the viability, T/C (second compound 10 µM, first compound 0.00949 µM) was 0.3%. For the same compound, the viability, T/C (second compound 10 µM, first compound 0.03 µM) was 0.44%, the viability, T/C (second compound 10 µM, first compound 0.0949 µM) was 0.26% and the viability, T/C (second compound 10 µM, first compound 0.3 µM) was 0.34%.
With CC1COCCN1c1cc(C2(S(C)(=N)=O)CC2)nc(-c2ccnc3[nH]ccc23)n1 (stereo unspecified) + CN1CCN(c2cc(C(=O)Nc3cc4cc(-c5cnn(C)c5)ccc4cn3)ccn2)CC1 the IC50 (second compound 0.0316 µM) was 6190 nM, the IC50 (second compound 0.1 µM) was 4500 nM and the IC50 (second compound 0.316 µM) was < 31.6 nM. The IC50 (second compound 1 µM) was < 31.6 nM, the IC50 (second compound 3.16 µM) was < 31.6 nM and the IC50 (second compound 10 µM) was < 31.6 nM. For the same compound, the viability, T/C [1] was 119%, the viability, T/C [2] was 103% and the viability, T/C [3] was 97%. It also gave a viability, T/C [4] of 104%, a viability, T/C [5] of 73.8% and a viability, T/C [6] of 31.6%. For the same compound, the viability, T/C [7] was 103%, the viability, T/C [8] was 97.8% and the viability, T/C [9] was 97.3%. It also gave a viability, T/C [10] of 83.1%, a viability, T/C [11] of 62.6% and a viability, T/C [12] of 22.6%. For the same compound, the viability, T/C [13] was 36.3%, the viability, T/C [14] was 28.3% and the viability, T/C [15] was 31.2%. It also gave a viability, T/C [16] of 20.4%, a viability, T/C [17] of 17.5% and a viability, T/C [18] of 8.72%. The viability, T/C [19] was 4.95%, the viability, T/C [20] was 4.97% and the viability, T/C [21] was 4.82%. It also gave a viability, T/C [22] of 5.18%, a viability, T/C [23] of 5.87% and a viability, T/C [24] of 6.94%. For the same compound, the viability, T/C [25] was 7.02%, the viability, T/C [26] was 7.62% and the viability, T/C [27] was 8.37%. It also gave a viability, T/C [28] of 7.12%, a viability, T/C [29] of 8.01% and a viability, T/C [30] of 9.37%. It also gave a viability, T/C [31] of 2.02%, a viability, T/C [32] of 1.85% and a viability, T/C [33] of 2.1%. It also gave a viability, T/C [34] of 1.7%, a viability, T/C [35] of 1.8% and a viability, T/C [36] of 1.35%.
With O=C(c1cc(Cc2n[nH]c(=O)c3ccccc23)ccc1F)N1CCN(C(=O)C2CC2)CC1 + CN1CCN(c2cc(C(=O)Nc3cc4cc(-c5cnn(C)c5)ccc4cn3)ccn2)CC1 the IC50 (second compound 0.0316 µM) was > 10000 nM, the IC50 (second compound 0.1 µM) was > 10000 nM and the IC50 (second compound 0.316 µM) was < 31.6 nM. For the same compound, the IC50 (second compound 1 µM) was < 31.6 nM, the IC50 (second compound 3.16 µM) was < 31.6 nM and the IC50 (second compound 10 µM) was < 31.6 nM. The viability, T/C [1] was 108%, the viability, T/C [2] was 98% and the viability, T/C [3] was 94.9%. It also gave a viability, T/C [4] of 95.3%, a viability, T/C [5] of 89.6% and a viability, T/C [6] of 80.3%. It also gave a viability, T/C [7] of 96.8%, a viability, T/C [8] of 96.9% and a viability, T/C [9] of 79.1%. For the same compound, the viability, T/C [10] was 85.6%, the viability, T/C [11] was 88.3% and the viability, T/C [12] was 62.8%. It also gave a viability, T/C [13] of 33.5%, a viability, T/C [14] of 34.3% and a viability, T/C [15] of 29.7%. The viability, T/C [16] was 31.1%, the viability, T/C [17] was 29.2% and the viability, T/C [18] was 23.2%. The viability, T/C [19] was 5.93%, the viability, T/C [20] was 3.31% and the viability, T/C [21] was 4.81%. It also gave a viability, T/C [22] of 4.43%, a viability, T/C [23] of 5.12% and a viability, T/C [24] of 5.59%. It also gave a viability, T/C [25] of 7.36%, a viability, T/C [26] of 7.02% and a viability, T/C [27] of 6.98%. The viability, T/C [28] was 7.16%, the viability, T/C [29] was 7.79% and the viability, T/C [30] was 10.4%. The viability, T/C [31] was 1.95%, the viability, T/C [32] was 2.1% and the viability, T/C [33] was 1.53%. It also gave a viability, T/C [34] of 2.95%, a viability, T/C [35] of 2.41% and a viability, T/C [36] of 1.71%.
